Laboratory results as given in patent US20120129898A1, “PHARMACEUTICAL COMPOSITIONS FOR POORLY SOLUBLE DRUGS” (priority 2007, published 2012).

Experiments:
[1] = Exposure after dosing crystalline HEP in animal species; format: in vivo; settings: crystalline form dosed in animal species
[2] = Aqueous solubility of HEP; format: physicochemical

Exposure of crystalline form (even nanocrystalline) [1]: very low exposure | Aqueous solubility [2]: poor aqueous solubility
Structure (SMILES): CCC(=O)c1csc(NC(=O)[C@H]([C@@H](C)c2ccccc2)N2C(=O)N[C@H](c3ccc(OCCO)cc3)C2=O)n1 [HEP, (2S,3S)-2-{(R)-4-[4-(2-hydroxy-ethoxy)-phenyl]-2,5-dioxo-imidazolidin-1-yl}-3-phenyl-N-(4-propionyl-thiazol-2-yl)-butyramide]
